Measurements from patent publication US11963960B2 (Flash Therapeutics, LLC, priority 2020, dated 2024).
Entries after “also recorded” stand apart in the source; their conditions may differ. Read-outs that look alike come from different tables or passages of the source.

Legend:
[1] = target: N-terminally GST-tagged HCK (75-526) (Homo sapiens (Human), UniProt P08631); assay: HCK Kinase Assay (ProFluor Src-Family Kinase Assay); type: biochemical; details: for IC50: 50 μM ATP
Summary of the method: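 ProFluor Src-family format: after the kinase reaction, protease solution was added for 60 min at room temperature (22-25° C), then stabilizer.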

[2] = Assessment of In Vivo Pharmacokinetics in Beagle dog; details: for bioavailability in vivo / plasma clearance in vivo: dog, comparison in words; for Dog BAV: male Beagle dog, iv or po at 1 mg/kg or 3 mg/kg
Method: Assessment of In Vivo Pharmacokinetics
A total of 6 Male Non-naïve Beagle dog, weighing approximately 8.00-10.00 kg (Beijing Marshall Biotechnology Co. LTD), were dosed by intravenous injection (iv) or oral gavage (po) at 1 mg/kg or 3 mg/kg. The vehicles of IV and PO are 100% saline and 100% (0.5% MC in water), respectively. The IV dose was conducted via cephalic vein injection, PO via gavage administration. The animals were restrained manually, and approximately 0.5 mL blood/time point was collected from cephalic vein into pre-cooled K2EDTA tubes. Blood sample was put on wet ice and centrifuged at 4° C. (2000 g, 5 min) to obtain plasma within 15 minutes of sample collection. Plasma samples were analyzed by UPLC/MS-MS. PK parameters were estimated by non-compartmental model using WinNonlin6.4.

[3] = Assessment of In Vitro Metabolic Stability in dog liver microsomes; type: in vitro ADME; details: for t1/2 in dog LM compared with the compound of example 1: comparison in words; for half-life at 1 μM: dog liver microsomes 0.5 mg/mL, 1 μM compound, NADPH, 37° C., read-out: Dog LM t1/2
Method: Assessment of In Vitro Metabolic Stability
Dog liver microsomes (0.5 mg/mL) were purchased from Corning. Stock solutions were prepared at 10 mM in DMSO for the test compound. Aliquots of the stock solutions were diluted to 0.5 mM with acetonitrile, and then further diluted upon the addition of liver microsomes/buffer to 1.5 μM. An aliquot of 30 μL of 1.5 μM solutions was mixed with 15 μL of 6 mM NADPH and the final concentration of NADPH was 2 mM, which had been pre-warmed to 37° C. Test compound and Ketanserin final concentrations were 1 μM. The plates were kept in a 37° C. water bath for the duration of the experiment. At each time point (0, 5, 15, 30, 45 minutes), 135 μL of acetonitrile was added into corresponding wells. After the final time point was quenched by acetonitrile, the assay plates were shaken (IKA, MTS 2/4) for 10 min (600 rpm/min) and then centrifuged at 5,594 g for 15 min (Thermo Multifuge×3R). Aliquots of the supernatant were taken, diluted 1:1 into distilled water, and analyzed by LC-MS/MS. The peak area response ratio to internal standard (PARR) of the compounds at 5, 15, 30, 45 minutes was compared to the PARR at time 0 to determine the percent of test compound remaining at each time point. Half-lives were calculated using Excel software, fitting to a single-phase exponential decay equation.

[4] = HCK inhibitory activity, read-out: HCK Activity

N-terminally GST-tagged HCK (75-526), sequence (P08631 75-526): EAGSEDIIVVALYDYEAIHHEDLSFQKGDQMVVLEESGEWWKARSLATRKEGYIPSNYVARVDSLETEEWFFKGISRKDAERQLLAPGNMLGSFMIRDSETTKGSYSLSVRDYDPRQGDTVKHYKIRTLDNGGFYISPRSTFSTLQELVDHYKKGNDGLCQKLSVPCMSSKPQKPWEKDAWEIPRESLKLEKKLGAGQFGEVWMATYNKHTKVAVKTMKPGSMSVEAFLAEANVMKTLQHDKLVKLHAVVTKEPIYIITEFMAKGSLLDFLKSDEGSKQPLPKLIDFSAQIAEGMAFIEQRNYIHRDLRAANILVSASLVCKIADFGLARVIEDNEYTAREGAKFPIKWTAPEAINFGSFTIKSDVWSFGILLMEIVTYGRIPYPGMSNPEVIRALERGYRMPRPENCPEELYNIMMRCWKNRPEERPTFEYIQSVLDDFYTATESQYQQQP

Row | SMILES | IC50 ([1]; read-out: HCK IC50) [nM] | IC50 [1, 4] [nM] | bioavailability in vivo [2] | plasma clearance in vivo [2] | Dog BAV [2] [% F] | t1/2 in dog LM compared with the compound of example 1 [3] | half-life at 1 μM [3] [h] | HCK potency relative to a comparator compound ([1]; example 127 versus example 21 and versus example 17)
1 | CN1CCN([C@H]2CC[C@H](n3nc(-c4ccc(Oc5ccccc5)cc4F)c4c(N)ncnc43)CC2)CC1 [Example 103, 3-(2-Fluoro-4-phenoxyphenyl)-1-((trans)-4-(4-methylpiperazin-1-yl)cyclohexyl)-1H-pyrazolo [3,4-d] pyrimidin-4-amine] | 4.1 | < 50 | higher bioavailability | lower plasma clearance | 24 | higher t1/2 | 0.967 | 
2 | C[C@H]1CN([C@H]2CC[C@H](n3nc(-c4ccc(Oc5ccccc5)cc4F)c4c(N)ncnc43)CC2)CCN1 [Example 127, 3-(2-fluoro-4-phenoxyphenyl)-1-((trans)-4-((S)-3-methylpiperazin-1-yl)cyclohexyl)-1H-pyrazolo[3,4-d]pyrimidin-4-amine] | 5.1 | < 50 | higher bioavailability | lower plasma clearance | 57 | higher t1/2 | 1.97 | nearly an order of magnitude higher potency; also recorded: nearly three times greater potency
3 | CN1CCN([C@H]2CC[C@H](c3nc(-c4ccc(Oc5ccccc5)cc4F)c4c(N)ncnn43)CC2)CC1 [Example 163, 5-(2-fluoro-4-phenoxyphenyl)-7-((trans)-4-(4-methylpiperazin-1-yl)cyclohexyl)imidazo[5,1-f][1,2,4]triazin-4-amine] | 1.1 | < 50 | higher bioavailability | lower plasma clearance | 51 | higher t1/2 | 1.8 | 
